Results from patent publication US8455399B2, “N-(4-perfluoroalkyl-phenyl)-4-triazolyl-benzamides as insecticides” (Syngenta Crop Protection LLC, priority 2009, dated 2013).

Tests used:
Type in all cases: in vivo
Diabrotica balteata = Diabrotica balteata (corn root worm) artificial diet test; settings: 120 h, 200 ppm (concentration in well 18 ppm), L2 larvae, larval mortality and growth regulation after 5 days
Procedure: (§1) Diabrotica Balteata (Corn Root Worm): A 24-well microtiter plate (MTP) with artificial diet was treated with test solutions at an application rate of 200 ppm (concentration in well 18 ppm) by pipetting. After drying, the MTP's were infested with L2 larvae (6-10 per well). After an incubation period of 5 days, samples were checked for larval mortality and growth regulation.

Plutella xylostella = Plutella xylostella (diamond back moth) artificial diet test; settings: 144 h, 200 ppm (concentration in well 18 ppm), L2 larvae, larval mortality and growth regulation after 6 days
Procedure: as §1, with “Plutella Xylostella (Diamond Back Moth):” for “Diabrotica Balteata (Corn Root Worm): A”, “(7-12” for “(6-10”, “6” for “5”

Heliothis virescens = Heliothis virescens (tobacco budworm) egg/artificial diet test; settings: 96 h, 200 ppm (concentration in well 18 ppm), eggs 0-24 h old on artificial diet, egg mortality, larval mortality, growth regulation after 4 days
Procedure: Heliothis Virescens (Tobacco Budworm): Eggs (0-24 h old) were placed in 24-well microtiter plate on artificial diet and treated with test solutions at an application rate of 200 ppm (concentration in well 18 ppm) by pipetting. After an incubation period of 4 days, samples were checked for egg mortality, larval mortality, and growth regulation.

Spodoptera littoralis = Spodoptera littoralis (Egyptian cotton leafworm) leaf disc spray test; settings: foliar, 72 h, 200 ppm sprayed on cotton leaf discs, 5 L1 larvae, mortality, feeding behavior, growth regulation 3 days after treatment
Excerpt: Spodoptera Littoralis (Egyptian Cotton Leafworm): Cotton leaf discs were placed on agar in a 24-well microtiter plate and sprayed with test solutions at an application rate of 200 ppm. After drying, the leaf discs were infested with 5 L1 larvae. The samples were checked for mortality, feeding behavior, and growth regulation 3 days after treatment (DAT).

Tetranychus urticae = Tetranychus urticae (two-spotted spider mite) leaf disc spray test; settings: foliar, 192 h, 200 ppm sprayed on bean leaf discs, mite populations of mixed ages, egg, larval and adult mortality 8 days later
Excerpt: Tetranychus Urticae (Two-Spotted Spider Mite): Bean leaf discs on agar in 24-well microtiter plates were sprayed with test solutions at an application rate of 200 ppm. After drying, the leaf discs are infested with mite populations of mixed ages. 8 days later, discs are checked for egg mortality, larval mortality, and adult mortality.

Thrips tabaci = Thrips tabaci (onion thrips) leaf disc spray test; settings: foliar, 168 h, 200 ppm sprayed on sunflower leaf discs, population of mixed ages, mortality after 7 days
Procedure: Thrips Tabaci (Onion Thrips): Sunflower leaf discs were placed on agar in a 24-well microtiter plate and sprayed with test solutions at an application rate of 200 ppm. After drying, the leaf discs were infested with an […] population of mixed ages. After an incubation period of 7 days, samples were checked for mortality.

Measured: pest or weed control at 200 ppm

Cc1cc(C(F)(C(F)(F)F)C(F)(F)F)cc(C)c1NC(=O)c1ccc(-n2cncn2)c([N+](=O)[O-])c1 [A1, N-[2,6-Dimethyl-4-(1,2,2,2-tetrafluoro-1-trifluoromethylethyl)phenyl]-3-nitro-4-(1,2,4-triazol-1-yl)benzamide]
not listed: Thrips tabaci
≥ 80%: all other assays above

CCc1cc(C(F)(C(F)(F)F)C(F)(F)F)cc(CC)c1NC(=O)c1ccc(-n2cncn2)c([N+](=O)[O-])c1 [A2, N-[2,6-Diethyl-4-(1,2,2,2-tetrafluoro-1-trifluoromethylethyl)phenyl]-3-nitro-4-(1,2,4-triazol-1-yl)benzamide]
≥ 80%: Diabrotica balteata | Spodoptera littoralis

CCc1cc(C(F)(C(F)(F)F)C(F)(F)C(F)(F)F)cc(C)c1NC(=O)c1ccc(-n2cncn2)c([N+](=O)[O-])c1 (stereo not shown) [A3, N-[2-Ethyl-4-(1,2,2,3,3,3-hexafluoro-1-trifluoromethylpropyl)-6-methylphenyl]-3-nitro-4-(1,2,4-triazol-1-yl)benzamide]
≥ 80%: all assays above

O=C(Nc1c(Br)cc(C(F)(C(F)(F)F)C(F)(F)C(F)(F)F)cc1Br)c1ccc(-n2cncn2)c([N+](=O)[O-])c1 (stereo not shown) [A4, N-[2,6-dibromo-4-(1,2,2,3,3,3-hexafluoro-1-trifluoromethylpropyl)phenyl]-3-nitro-4-(1,2,4-triazol-1-yl)benzamide]
≥ 80%: all assays above

Cc1cc(C(F)(C(F)(F)F)C(F)(F)F)cc(C)c1NC(=O)c1ccc(-n2cncn2)c(N)c1 [B1, 3-Amino-N-[2,6-dimethyl-4-(1,2,2,2-tetrafluoro-1-trifluoromethylethyl)phenyl]-4-(1,2,4-triazol-1-yl)benzamide]
≥ 80%: Heliothis virescens | Tetranychus urticae

CCc1cc(C(F)(C(F)(F)F)C(F)(F)F)cc(CC)c1NC(=O)c1ccc(-n2cncn2)c(N)c1 [B2, 3-amino-N-[2,6-diethyl-4-(1,2,2,2-tetrafluoro-1-trifluoromethylethyl)phenyl]-4-(1,2,4-triazol-1-yl)benzamide]
not listed: Thrips tabaci
≥ 80%: all other assays above

CCc1cc(C(F)(C(F)(F)F)C(F)(F)C(F)(F)F)cc(C)c1NC(=O)c1ccc(-n2cncn2)c(N)c1 (stereo not shown) [B3, 3-Amino-N-[2-ethyl-4-(1,2,2,3,3,3-hexafluoro-1-trifluoromethylpropyl)-6-methyl-phenyl]-4-(1,2,4-triazol-1-yl)benzamide]
not listed: Thrips tabaci
≥ 80%: all other assays above

Nc1cc(C(=O)Nc2c(Br)cc(C(F)(C(F)(F)F)C(F)(F)C(F)(F)F)cc2Br)ccc1-n1cncn1 (stereo not shown) [B4, 3-amino-N-[2,6-dibromo-4-(1,2,2,3,3,3-hexafluoro-1-trifluoromethylpropyl)-phenyl]-4-(1,2,4-triazol-1-yl)benzamide]
≥ 80%: Plutella xylostella | Heliothis virescens | Spodoptera littoralis | Tetranychus urticae

Cc1cc(C(F)(C(F)(F)F)C(F)(F)F)cc(C)c1NC(=O)c1ccc(-n2cncn2)c(NC(=O)c2ccc(F)cc2)c1 [D1, 3-(4-Fluorobenzoylamino)-N-[2,6-dimethyl-4-(1,2,2,2-tetrafluoro-1-trifluoromethyl-ethyl)phenyl]-4-(1,2,4-triazol-1-yl)benzamide]
≥ 80%: Diabrotica balteata | Plutella xylostella | Heliothis virescens | Spodoptera littoralis

CCc1cc(C(F)(C(F)(F)F)C(F)(F)F)cc(CC)c1NC(=O)c1ccc(-n2cncn2)c(NC(=O)c2ccc(F)cc2)c1 [D2, 3-(4-fluorobenzoylamino)-N-[2,6-diethyl-4-(1,2,2,2-tetrafluoro-1-trifluoromethylethyl)phenyl]-4-(1,2,4-triazol-1-yl)benzamide]
not listed: Tetranychus urticae
≥ 80%: all other assays above

CCc1cc(C(F)(C(F)(F)F)C(F)(F)C(F)(F)F)cc(C)c1NC(=O)c1ccc(-n2cncn2)c(NC(=O)c2cccc([N+](=O)[O-])c2C)c1 (stereo not shown) [D3, 3-(2-Methyl-3-nitrobenzoylamino)-N-[2-ethyl-4-(1,2,2,3,3,3-hexafluoro-1-trifluoromethylpropyl)-6-methylphenyl]-4-(1,2,4-triazol-1-yl)benzamide]
≥ 80%: Plutella xylostella | Heliothis virescens | Spodoptera littoralis | Tetranychus urticae

CCc1cc(C(F)(C(F)(F)F)C(F)(F)C(F)(F)F)cc(C)c1NC(=O)c1ccc(-n2cncn2)c(NC(=O)c2ccc(F)cc2Cl)c1 (stereo not shown) [D4, 3-(2-Chloro-4-fluorobenzoylamino)-N-[2-ethyl-4-(1,2,2,3,3,3-hexafluoro-1-trifluoromethylpropyl)-6-methylphenyl]-4-(1,2,4-triazol-1-yl)benzamide]
≥ 80%: all assays above

CCc1cc(C(F)(C(F)(F)F)C(F)(F)C(F)(F)F)cc(C)c1NC(=O)c1ccc(-n2cncn2)c(NC(=O)c2ccc(C#N)cc2)c1 (stereo not shown) [D5, 3-(4-Cyanobenzoylamino)-N-[2-ethyl-4-(1,2,2,3,3,3-hexafluoro-1-trifluoromethyl-propyl)-6-methylphenyl]-4-(1,2,4-triazol-1-yl)benzamide]
≥ 80%: Plutella xylostella | Heliothis virescens | Spodoptera littoralis

O=C(Nc1cc(C(=O)Nc2c(Br)cc(C(F)(C(F)(F)F)C(F)(F)C(F)(F)F)cc2Br)ccc1-n1cncn1)c1ccc(F)cc1 (stereo not shown) [D7, 3-(4-Fluorobenzoylamino)-N-[2,6-dibromo-4-(1,2,2,3,3,3-hexafluoro-1-trifluoromethylpropyl)phenyl]-4-(1,2,4-triazol-1-yl)benzamide]
not listed: Tetranychus urticae
≥ 80%: all other assays above

N#Cc1ccc(C(=O)Nc2cc(C(=O)Nc3c(Br)cc(C(F)(C(F)(F)F)C(F)(F)C(F)(F)F)cc3Br)ccc2-n2cncn2)cc1 (stereo not shown) [D8, 3-(4-cyanobenzoylamino)-N-[2,6-dibromo-4-(1,2,2,3,3,3-hexafluoro-1-trifluoromethylpropyl)phenyl]-4-(1,2,4-triazol-1-yl)benzamide]
not listed: Tetranychus urticae
≥ 80%: all other assays above
